Laboratory results reported in ChEMBL document CHEMBL1201862, “PubChem BioAssay data set” (2004).
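Cells were grown in 96-well plates and exposed to each compound for 48 hours at five concentrations; endpoints were interpolated linearly between bracketing concentrations, or set to the highest concentration if not reached. At the GI50, growth is halved.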 The source made the active and inactive calls. Rule as the data show it: active = GI50 up to about 1.1 µM and inactive = higher.

Key:
Assay in all cases: NCI-60 cell line screen, 48 h
ACHN = system: ACHN
SN12C = system: SN12C
SF-295 = system: SF-295
HCC 2998 = system: HCC 2998
CAKI-1 = system: CAKI-1
HOP-62 = system: HOP-62
OVCAR-3 = system: OVCAR-3
K562 = system: K562
U-251 = system: U-251
TK-10 = system: TK-10
NCI-H460 = system: NCI-H460
SW-620 = system: SW-620
RXF 393 = system: RXF 393
MDA-MB-231 = system: MDA-MB-231
Hs-578T = system: Hs-578T
A549 = system: A549
KM12 = system: KM12
NCI-H23 = system: NCI-H23
IGROV-1 = system: IGROV-1
MCF7 = system: MCF7
HL-60 = system: HL-60
OVCAR-5 = system: OVCAR-5
NCI/ADR-RES = system: NCI/ADR-RES
HCT-15 = system: HCT-15
NCI-H522 = system: NCI-H522
HCT-116 = system: HCT-116
SK-MEL-28 = system: SK-MEL-28
SNB-19 = system: SNB-19
NCI-H226 = system: NCI-H226
MDA-N = system: MDA-N
PC-3 = system: PC-3
SK-MEL-2 = system: SK-MEL-2
SK-MEL-5 = system: SK-MEL-5
A498 = system: A498
DU-145 = system: DU-145
BT-549 = system: BT-549
SF-539 = system: SF-539
HT-29 = system: HT-29
M14 = system: M14
LOX IMVI = system: LOX IMVI
RPMI-8226 = system: RPMI-8226
SF-268 = system: SF-268
UACC-257 = system: UACC-257
MDA-MB-435 = system: MDA-MB-435
SK-OV-3 = system: SK-OV-3
COLO 205 = system: COLO 205
SNB-75 = system: SNB-75
Malme-3M = system: Malme-3M
UO-31 = system: UO-31
T47D = system: T47D
786-0 = system: 786-0
OVCAR-8 = system: OVCAR-8
UACC-62 = system: UACC-62

Structure (SMILES): c1ccc([P+](Cc2ccccc2C[P+](c2ccccc2)(c2ccccc2)c2ccccc2)(c2ccccc2)c2ccccc2)cc1
- GI50 (ACHN): > 100 µM (inactive)
- GI50 (SN12C): > 100 µM (inactive)
- GI50 (SF-295): 57.8 µM (inactive)
- GI50 (HCC 2998): > 100 µM (inactive)
- GI50 (CAKI-1): > 100 µM (inactive)
- GI50 (HOP-62): > 100 µM (inactive)
- GI50 (OVCAR-3): 86.7 µM (inactive)
- GI50 (K562): 42.5 µM (inactive)
- GI50 (U-251): 63.5 µM (inactive)
- GI50 (TK-10): > 100 µM (inactive)
- GI50 (NCI-H460): 38.9 µM (inactive)
- GI50 (SW-620): > 100 µM (inactive)
- GI50 (RXF 393): > 100 µM (inactive)
- GI50 (MDA-MB-231): > 100 µM (inactive)
- GI50 (Hs-578T): > 100 µM (inactive)
- GI50 (A549): > 100 µM (inactive)
- GI50 (KM12): 49.9 µM (inactive)
- GI50 (NCI-H23): 87.3 µM (inactive)
- GI50 (IGROV-1): 66.1 µM (inactive)
- GI50 (MCF7): > 100 µM (inactive)
- GI50 (HL-60): 22.8 µM (inactive)
- GI50 (OVCAR-5): > 100 µM (inactive)
- GI50 (NCI/ADR-RES): > 100 µM (inactive)
- GI50 (HCT-15): > 100 µM
- GI50 (NCI-H522): > 100 µM (inactive)
- GI50 (HCT-116): 29.4 µM (inactive)
- GI50 (SK-MEL-28): > 100 µM (inactive)
- GI50 (SNB-19): 50.6 µM (inactive)
- GI50 (NCI-H226): > 100 µM (inactive)
- GI50 (MDA-N): 30.3 µM (inactive)
- GI50 (PC-3): > 100 µM (inactive)
- GI50 (SK-MEL-2): > 100 µM (inactive)
- GI50 (SK-MEL-5): > 100 µM (inactive)
- GI50 (A498): > 100 µM (inactive)
- GI50 (DU-145): > 100 µM (inactive)
- GI50 (BT-549): 65.9 µM (inactive)
- GI50 (SF-539): > 100 µM (inactive)
- GI50 (HT-29): 51.2 µM (inactive)
- GI50 (M14): > 100 µM (inactive)
- GI50 (LOX IMVI): 37.6 µM (inactive)
- GI50 (RPMI-8226): 6.03 µM (inactive)
- GI50 (SF-268): > 100 µM (inactive)
- GI50 (UACC-257): > 100 µM (inactive)
- GI50 (MDA-MB-435): 42.8 µM (inactive)
- GI50 (SK-OV-3): > 100 µM (inactive)
- GI50 (COLO 205): > 100 µM (inactive)
- GI50 (SNB-75): > 100 µM (inactive)
- GI50 (Malme-3M): > 100 µM (inactive)
- GI50 (UO-31): > 100 µM (inactive)
- GI50 (T47D): > 100 µM (inactive)
- GI50 (786-0): > 100 µM (inactive)
- GI50 (OVCAR-8): > 100 µM (inactive)
- GI50 (UACC-62): 44.2 µM (inactive)
